The text below walks through data of US20250352608A1, “POLYPEPTIDES HAVING ANTI-INFLAMMATORY EFFECTS AND USES THEREOF” (OneSkin, Inc., priority 2020, published 2025).

Assay [1] has as its system peripheral blood mononuclear cells (PBMCs). Briefly: PBMC proliferation with PHA activation (MTT). The format is cell-based, human. The following applies: single agent, 5 days (Peptide 14 3.12 μM; rapamycin 100 nM; PHA 5 μg/mL). The protocol: The effect of Peptide 14 on T cell activation was assessed by treating PBMCs stimulated with phytohaemagglutinin (PHA) with Peptide 14. PHA usually can trigger lymphocyte activation and cell division. PBMCs that were untreated with PHA or Peptide 14 served as negative control of lymphocyte activation. In the phytohaemagglutinin group, the PBMCs were activated with 5 μg/mL of PHA for 5 days. In the Peptide 14 and PHA group, the PBMCs were activated with 5 μg/mL of PHA and treated with 3.12 μM of Peptide 14 for 5 days. In the Peptide 14 group, the PBMCs were treated with 3.12 μM of Peptide 14 for 5 days. In the rapamycin group, the PBMCs were treated with 100 nM of rapamycin, a well-known immunosuppressive drug for 5 days. In the rapamycin+PHA group, the PBMCs were activated with 5 μg/mL of PHA and treated with 100 nM of rapamycin for 5 days. The viability and proliferation of PBMCs were analyzed by MTT assay. Briefly, after 5 days of treatment, the cells were incubated with […] MTT reagent for 4 hours. Then, 100 μL of DMSO was added into each well, and the absorbance was detected at 595 nm.

The test system is the same in assay [2]. In words: PBMC mRNA of IFN-γ and IL-10 (RT-qPCR). The format is cell-based, human. The following applies: single agent, 5 days (Peptide 14 3.12 μM; rapamycin 100 nM; PHA 5 μg/mL). The protocol:
The effect of Peptide 14 on T cell activation was assessed by treating PBMCs stimulated with phytohaemagglutinin (PHA) with Peptide 14. PHA usually can trigger lymphocyte activation and cell division. PBMCs that were untreated with PHA or Peptide 14 served as negative control of lymphocyte activation. In the phytohaemagglutinin group, the PBMCs were activated with 5 μg/mL of PHA for 5 days. In the Peptide 14 and PHA group, the PBMCs were activated with 5 μg/mL of PHA and treated with 3.12 μM of Peptide 14 for 5 days. In the Peptide 14 group, the PBMCs were treated with 3.12 μM of Peptide 14 for 5 days. In the rapamycin group, the PBMCs were treated with 100 nM of rapamycin, a well-known immunosuppressive drug for 5 days. In the rapamycin+PHA group, the PBMCs were activated with 5 μg/mL of PHA and treated with 100 nM of rapamycin for 5 days. […] IFN-γ is typically produced in lymphocytes stimulated by PHA and may be used as marker of PBMC stimulation level. IL-10 is an anti-inflammatory cytokine. The cells from each of the experimental groups were processed for total RNA isolation, reverse transcription of the RNA and RT-qPCR. Data is represented as relative expression normalized to ubiquitous gene expression and untreated PBMC negative control.
A general note: Real-time PCR tracks product formation cycle by cycle.

Turning to phytohaemagglutinin [PHA], in assay [1], the “relative PBMC proliferation, % of negative control” value was “about 130%”. In assay [2], the “relative expression level of IFN-γ vs negative control” value is “about 15 fold” and the “relative expression level of IL-10 (negative control = 1)” value is listed as “near zero”.
